# Measurements taken from patent US20150018325A1, “METHOD FOR LATE POST COITAL CONTRACEPTION USING ULIPRISTAL ACETATE” (LABORATOIRE HRA-PHARMA, priority 2010, published 2015).
# “And” between values parts separate entries of the source, which are not always exact repeats. Equal values may be shown once. “Also recorded” adds a separate entry of the source.
# Columns and labels:
# [1] = tested on: women presenting 0-120 hours after unprotected intercourse; experiment: Prospective multicenter, single-blind randomized study of ulipristal acetate versus levonorgestrel as emergency contraception 0-120 hours after unprotected intercourse (Example 2); format: in vivo
# Experimental: This was a prospective, single-blind (subject and sponsor blind, investigator not blind), randomized, multicenter, 2-arm parallel comparative study designed to evaluate the efficacy of a single dose of ulipristal acetate (30 mg tablets) compared to levonorgestrel (1.5 mg) administered for EC within 120 hours after unprotected intercourse. It was performed in 10 centers in Europe and 25 centers in the US. Women ([…]), with regular menstrual cycles (between 24 and 35 days and intra-individual variations less than or equal to 5 days), who presented for EC within 120 hours after unprotected intercourse at a participating study site and who met the inclusion/exclusion criteria were enrolled into the study after they signed informed consent form. Subjects were excluded from the study in case of ongoing pregnancy or breast-feeding or current use of hormonal contraception or IUD. The study medication (ulipristal acetate 30 mg or levonorgestrel 1.5 mg) was administered according to a random allocation procedure generated electronically. Treatment was administered orally immediately after all eligibility criteria (including negative urine pregnancy test) had been verified. At follow-up visit (5-7 days after expected onset of menses) a high-sensitivity urine pregnancy test was systematically performed. If the urine pregnancy was positive, this was confirmed by a serum β-hCG test. The pre-treatment serum specimen was also assayed for β-hCG to verify whether the pregnancy pre-dated intake of the study drug. Confirmed pregnancies were further evaluated by scrum quantitative hCG(s) and transvaginal ultrasound(s) to determine the estimated fertilization date. Based on previous similar clinical trials, pregnancy rates in the ulipristal acetate and levonorgestrel group were expected to be 1% and 1.7% respectively. […] For this comparison, the non-inferiority margin was set to 1.6 in odds ratio (a non-inferiority margin of 1.6 in odds ratio is equivalent to a non-inferiority margin of 1% in percent point with an assumed pregnancy rate with levonorgestrel of 1.7%) with a type I error rate of 5% (two-sided) and 85% power. In order to compensate for an anticipated lost to follow-up rate of 10%, 910 patients per group had to be included in the 0-72 hour time interval. Furthermore, recruitment of patients requesting emergency contraception between 72 h and 120 h was estimated to represent 1 out of 10 patients. Therefore, taking into account recruitment in the 72-120 h interval, 1022 patients per group were to be randomized for a total of 2044 patients. […] In order to ensure unbiased evaluation of pregnancy data, an independent, autonomous DSMB composed of two experts in the field of gynecology, one methodologist and one expert in ethical questions was established to review incidence of pregnancy with respect to unacceptability threshold and give recommendations during the course of the clinical trial. In addition, the DSMB assessed whether each pregnancy was “compatible” or “not compatible” with treatment failure based on available data.
# [2] = tested on: women presenting 48-120 hours after unprotected intercourse; experiment: Prospective multicenter, open label study of ulipristal acetate as emergency contraception 48-120 hours after unprotected intercourse (Example 1); format: in vivo; settings: for Observed Pregnancy Rate (%): single 30 mg dose
# Experimental: Women 18 and older who presented for emergency contraception at family planning clinics located in the United States, 48-120 hours after UPI and who met the inclusion/exclusion criteria were enrolled into the study after signing the IRB approved informed consent. The inclusion criteria were regular menstrual cycles 24-35 (+/−5) days in length, no current use of hormonal contraception, willingness not to use hormonal contraception until study completion, and agreement to use barrier methods of contraception from enrollment to study completion. Exclusion criteria included pregnancy, breastfeeding, IUD, tubal ligation or partner vasectomy, and uncertainty about recent menstrual history.
# A total of up to three visits were scheduled over the course of the study. The first visit, considered Day 1, included the screening and treatment phases. A high sensitivity urine pregnancy test (level of detection 20 mIU/ml) was performed and a blood sample was taken and stored for later serum quantitative β-hCG testing to exclude pre-existing pregnancy if a pregnancy was detected during the study.
# Women were provided daily diaries in which to record further acts of intercourse, contraception used, vaginal spotting or bleeding, concomitant medication and adverse events during study duration.
# At follow-up visit (5-7 days after expected onset of menses) a high-sensitivity urine pregnancy test was systematically performed. If the urine pregnancy was positive, this was confirmed by a serum β-hCG test. The pre-treatment serum specimen was also assayed for β-hCG to verify whether the pregnancy pre-dated intake of the study drug. Confirmed pregnancies were further evaluated by scrum quantitative hCG(s) and transvaginal ultrasound(s) to determine the estimated fertilization date.
# Women could enroll in the study more than once but they must have completed prior study participation before re-enrolling.
# The primary efficacy measurement was the pregnancy rate, defined as the number of pregnancies after administration of ulipristal acetate for EC divided by the number of women treated. The primary efficacy analysis compared this pregnancy rate to the pregnancy rate that would have been expected in the absence of EC treatment, which was calculated according to Trussell's method (Trussell et al, 1998) using the pooled recognizable set of conception probabilities and the estimated cycle day of UPI based on self-reported date of last menstrual period, cycle length and date of UPI.
# The main secondary efficacy analysis compared the upper bound of the 95% confidence interval of the observed pregnancy rate to a clinical irrelevance threshold of 4%. This threshold corresponds to a reduction by half of the expected 8% pregnancy rate in the absence of contraception as observed in previous international studies (Von Hertzen et al, 1998; Piaggio, 1999; Von Hertzen et al, 2002). The study was to be considered a success only if both the primary efficacy and the main secondary analyses were conclusive. Other secondary analyses included calculation of the prevented fraction, defined as the number of pregnancies prevented (expected minus observed) divided by the number of pregnancies expected, and analysis of trend in pregnancy rates over time (by 24-hour interval) using a logistic regression model.
# The population analyzed for primary efficacy excluded women who were lost to follow-up and women ages 36 and older due to reduced fertility in this age category based upon FDA guidance. Further participations in the study allowed by protocol were also excluded from primary efficacy evaluation, as well as pregnancies that were determined as not compatible with study drug failure by a Data Safety Monitoring Board (DSMB) consisting of independent experts.
# Study enrolment was stopped once 1200 subjects meeting the criteria for the primary efficacy analysis had completed the study.
# [3] = tested on: women treated with ulipristal acetate in the two trials; experiment: Pooled efficacy analysis of Example 1 and Example 2 (Example 3); format: in vivo; settings: mITT pooled population
# Text: When the efficacy data of women treated with ulipristal acetate in the two trials (Example 1 and Example 2) are grouped in a pooled analysis, further evidence of the efficacy of the method is provided.
# [4] = used within 72 hours of UPI; cited from earlier work
# [5] = 0-72 h mITT, ulipristal acetate 30 mg or levonorgestrel 1.5 mg single oral dose
# [6] = >24 to <=48 hours relative to the previous 24 hrs time interval, mITT
# [7] = >48 to <=72 hours relative to the previous 24 hrs time interval, mITT
# [8] = >72 to <=96 hours relative to the previous 24 hrs time interval, mITT
# [9] = mITT, unprotected intercourse within 72 hours of EC intake (p=0.253)
# [10] = mITT, unprotected intercourse within 120 hours of EC intake (p=0.127)
# [11] = 48-72 h after UPI, mITT population
# [12] = >72-96 h after UPI, mITT population
# [13] = >96-120 h after UPI, mITT population
compound,measurement,setting,value
C#C[C@]1(O)CC[C@H]2[C@@H]3CCC4=CC(=O)CC[C@@H]4[C@H]3CC[C@@]21CC [levonorgestrel],Pregnancy Rate n,[1]; 0-72 h mITT (n = 1694),22
same,Pregnancy Rate (%),[1]; [5],2.59%
same,Pregnancy Rate (%),"[1]; 0-72 h mITT, ulipristal acetate 30 mg or levonorgestrel 1.5 mg single oral dose, listed as Levonorgestrel",2.6%
same,Pregnancy Rate (%),[1]; 0-120 h mITT,2.6%
same,Pregnancy Rate n,[1]; 0-120 h mITT (n = 1899),25
same,Pregnancy Rate (%),[1]; 72-120 h mITT,2.8%
same,Pregnancy Rate n,[1]; 72-120 h mITT (n = 203),3
same,Odds ratio,[1]; [6],0.73
same,Odds ratio,[1]; [7],1.17
same,Odds ratio,[1]; [8],1.08
same,Odds ratio,"[1]; >96 to <=120 hours relative to the previous 24 hrs time interval, mITT",1.11
same,prevented expected pregnancies,[1]; [9],52.2%
same,prevented expected pregnancies,[1]; [10],52.8%
"CC(=O)O[C@]1(C(C)=O)CC[C@H]2[C@@H]3CCC4=CC(=O)CCC4=C3[C@@H](c3ccc(N(C)C)cc3)C[C@@]21C [ulipristal acetate, 17α-acetoxy-11β-[4-N,N-dimethylamino-phenyl)-19-norpregna-4,9-diene-3,20-dione]",Effectiveness (Prevented Fraction),[2]; [11],61.9%
same,Observed Pregnancy Rate (%),[2]; [11],2.3%
same,Effectiveness (Prevented Fraction),[2]; [12],57.9%
same,Observed Pregnancy Rate (%),[2]; [12],2.1%
same,Effectiveness (Prevented Fraction),[2]; [13],75.0%
same,Observed Pregnancy Rate (%),[2]; [13],1.3%
same,Observed Pregnancy Rate (%),"[2]; All (48-120 h after UPI), mITT / Primary Efficacy Population",2.1%
same,Effectiveness (Prevented Fraction),"[2]; All (48-120 h after UPI), mITT population, expected pregnancies by Trussell's method",62.3%
same,observed pregnancy rate,"[2]; Safety Population of 1533 women, 48-120 h after UPI",1.9%
same,pregnancies detected at follow-up,"[2]; all women enrolled, before DSMB exclusion of 3 pregnancies",29
same,linear trend of pregnancy rates over time (logistic regression model),"[2]; by 24-hour interval, 48-120 h after UPI, p=0.2490",no evidence of change in efficacy over time
same,Overall observed pregnancy rate (%) (pooled),[3]; 0-24 h,1.60%
same,Overall observed pregnancy rate (%) (pooled),[3]; >24-48 h,2.07%
same,Overall observed pregnancy rate (%) (pooled),[3]; >48-72 h,2.16%
same,Overall observed pregnancy rate (%) (pooled),[3]; >72-96 h,1.76%
same,Overall observed pregnancy rate (%) (pooled),[3]; >96-120 h,1.04%
same,efficacy for preventing pregnancy compared with levonorgestrel,[4],as effective as levonorgestrel; also recorded: as efficacious as levonorgestrel
same,Pregnancy Rate n,[1]; 0-72 h mITT (n = 1694),15
same,Pregnancy Rate (%),[1]; [5],1.78%
same,Pregnancy Rate (%),"[1]; 0-72 h mITT, ulipristal acetate 30 mg or levonorgestrel 1.5 mg single oral dose, listed as Ulipristal acetate",1.8%
same,Pregnancy Rate (%),[1]; 0-120 h mITT,1.60%
same,Pregnancy Rate n,[1]; 0-120 h mITT (n = 1899),15
same,Pregnancy Rate (%),"[1]; 0-120 h mITT, listed as Ulipristal acetate",1.6%
same,Pregnancy Rate (%),[1]; 72-120 h mITT,0.0%
same,Pregnancy Rate n,[1]; 72-120 h mITT (n = 203),no pregnancy was observed
same,Pregnancy Rate n,"[1]; 72-120 h mITT (n = 203), listed as Ulipristal acetate",0
same,Pregnancy Rate (%),"[1]; >0 to <=24 hours from unprotected intercourse to treatment, mITT",1.6%
same,Pregnancy Rate (%),"[1]; >24 to <=48 hours from unprotected intercourse to treatment, mITT",2.13% and 2.1%
same,Odds ratio,[1]; [6],1.33
same,Pregnancy Rate (%),"[1]; >48 to <=72 hours from unprotected intercourse to treatment, mITT",1.48% and 1.5%
same,Odds ratio,[1]; [7],0.69
same,Odds ratio,[1]; [8],0.00
same,prevented expected pregnancies,[1]; [9],68.1%
same,prevented expected pregnancies,[1]; [10],72.2%
same,"pregnancies prevented compared to the expected pregnancy rate, ulipristal acetate versus levonorgestrel","[1]; p<0.05 one-sided randomization test within 120 hours, p<0.05 two-sided between 72 and 120 hours, mITT",significantly more pregnancies were prevented with ulipristal acetate than levonorgestrel
